Key:
Type in all cases: biochemical
[1] = target: T1, Hna (Sinorhizobium meliloti, UniProt Q92XN4); assay: malachite green phosphate release assay; details: 20 µM ATP; 10 nM ssDNA; 10 mM MgCl2; pH 7.5; 37 °C
T1 construct: gene SMa2245; full length, 845 residues; recombinant E. coli (codon-optimised); N-terminal 6xHis-MBP-TEV tags cleaved with TEV; monomer, ATP-stabilised homodimer

[2] = target: T1, Hna; assay: ssDNA cleavage time courses by capillary electrophoresis, […] ATP; details: 10 mM MgCl2; pH 7.5; 37 °C; nuclease read-out, ATP binds helicase domain
[3] = target: T2, Hna (Sinorhizobium meliloti, UniProt Q92XN4, P712A/D713A/E727A); assay: malachite green phosphate release assay; details: ssDNA present; Mg2+; pH 7.5; 37 °C
T2 construct: gene SMa2245; full length, 845 residues; recombinant E. coli (codon-optimised); N-terminal 6xHis-MBP-TEV tags cleaved with TEV; monomer, ATP-stabilised homodimer
T2 sequence (Q92XN4 entry or part of it P712A/D713A/E727A): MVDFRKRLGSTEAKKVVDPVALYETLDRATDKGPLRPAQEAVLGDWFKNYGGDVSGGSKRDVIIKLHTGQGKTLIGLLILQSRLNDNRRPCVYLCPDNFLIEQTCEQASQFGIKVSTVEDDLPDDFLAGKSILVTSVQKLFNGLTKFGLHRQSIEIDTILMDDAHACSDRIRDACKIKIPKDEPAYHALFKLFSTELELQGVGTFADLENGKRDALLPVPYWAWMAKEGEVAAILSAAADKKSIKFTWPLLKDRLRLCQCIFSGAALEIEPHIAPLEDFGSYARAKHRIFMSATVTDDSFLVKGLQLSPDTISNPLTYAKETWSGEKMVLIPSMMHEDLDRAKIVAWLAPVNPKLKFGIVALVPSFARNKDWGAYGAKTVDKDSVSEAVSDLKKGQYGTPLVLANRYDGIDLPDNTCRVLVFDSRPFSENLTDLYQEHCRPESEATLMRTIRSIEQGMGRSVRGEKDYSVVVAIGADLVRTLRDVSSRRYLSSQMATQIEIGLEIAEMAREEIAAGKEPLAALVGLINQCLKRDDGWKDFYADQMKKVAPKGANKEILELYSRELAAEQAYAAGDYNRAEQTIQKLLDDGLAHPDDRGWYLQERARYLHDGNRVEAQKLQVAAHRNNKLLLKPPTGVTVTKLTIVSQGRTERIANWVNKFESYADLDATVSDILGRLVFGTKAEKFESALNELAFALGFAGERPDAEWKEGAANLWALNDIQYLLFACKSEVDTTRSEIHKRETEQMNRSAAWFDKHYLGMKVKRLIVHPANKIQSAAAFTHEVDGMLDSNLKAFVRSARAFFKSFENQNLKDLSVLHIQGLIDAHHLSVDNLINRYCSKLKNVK

T1 sequence (Q92XN4 entry or part of it): as the sequence (Q92XN4 entry or part of it P712A/D713A/E727A) above, with A712P, A713D, A727E counted along it

Nc1ncnc2c1ncn2[C@@H]1O[C@H](COP(=O)(O)OP(=O)(O)OP(=O)(O)O)[C@@H](O)[C@H]1O [ATP]
malachite green phosphate release assay [1]: Hna possesses minimal innate ATPase activity that is significantly enhanced by the inclusion of ssDNA | inhibition of ssDNA cleavage [2]: significant reduction in ssDNA cleavage across all concentrations of ATP tested | ATPase activity (significant increase) [3]: significant increase in ATP hydrolysis by PDE Hna

— article PMC13381803, “Phage-encoded factor stimulates DNA degradation by the Hna anti-phage defense system” (Nature Communications, 2026)
